Laboratory results: patent US20060165683A1, “Methods and compositions for control of bone formation via modulation of sympathetic tone” (priority 2001, published 2006)

Columns and labels:
[1] = tested on: wild-type (wt) mice; assay: 17 β-estradiol treatment of wild-type mice; format: in vivo, mouse
[2] = tested on: ob/ob mice; assay: 17 β-estradiol or testosterone treatment of hypogonadic ob/ob mice; format: in vivo, mouse
Source text: Nevertheless, to address this point more thoroughly the hypogonadism of the ob/ob mice was exploited. Hypogonadism normally leads to an increase in osteoclasts number and in bone resorptive activity. […] On the other hand, if the osteoclasts of the ob/ob mice were not functioning properly, correcting their hypogonadism should not affect the severity of their high bone mass phenotype. To determine which of these two possibilities was correct, 17 β-estradiol or placebo pellets (Innovative Research of America) were implanted subcutaneously in 2-month-old female ob/ob mice to maintain a serum concentration of 250 pg/mL. These animals were analyzed after a 3-month treatment period.
Finally, the function of the osteoclasts of ob/ob and db/db mice was studied in vitro in an assay using hematopoietic progenitor cells from wild type, ob/ob, or db/db mice and growth factors known to induce the differentiation of these cells into functional osteoclasts. Mouse osteoclasts were generated in vitro according to protocols previously reported (Simonet et al., 1997, Cell 89, 309-319; Quinn et al., 1998, Endocrinology 139, 4424-4427). […] Medium was changed every other day. After 6 days of culture, cells were fixed in 3.7% formalin. Osteoclasts formed on plastic plates were stained for tartrate resistant acid phosphatase. Cells on dentin chips were removed by treatment with sodium hypochloride solution. Dentin chips were then stained with toluidine blue to visualize resorption pits.

[3] = tested on: bone marrow adipocytes; conditions: lumbar spine; cited from earlier work
[4] = tested on: C57BL/6J mice; assay: GTG lesioning of the hypothalamus in wt mice; format: in vivo, mouse
Protocol: Wildtype (C57BL/6J) and mutant (C57BL/6J A^y/a, C57BL/6J ob/ob) mice were obtained from the Jackson laboratory and adrenal medullectomized mice from Harlan Tecklad laboratory. Dbh−/− mice were rescued as previously described (Thomas et al., 1998, Neurochem 70:2468-2476). Isoproterenol (Sigma) was injected intraperitoneally (ip) once daily for 6 weeks at 30 mg/kg (wt) or 3 mg/kg (ob/ob). Propranolol (Sigma) was added to the drinking water at a concentration of 0.5 g/l. For ICV infusion, a 28-gauge cannula (Brain infusion kit II, Alza) was implanted into the third ventricle as previously described infusing human leptin (Sigma) at 8 ng/hr or MT-II at 125 ng/hr (Phoenix Pharmaceuticals) for 28 days (see, e.g., Ducy et al., 2000, Cell 100: 197-207). The cannula was connected to an osmotic pump (Alza) placed in the dorsal subcutaneous space of the animal. For parabiosis longitudinal incisions were made in the skin and in the peritoneal cavity along one side on each mouse. Edges of the incisions were connected by suture to induce coelioanastomosis. Cross-circulation was quantified by injecting 1 ml/kg 0.25% Evans blue into the tail vein of one mouse of the parabiosed pair. After 30 min. blood was collected from both mice by retroorbital bleeding and the blood exchange rate was calculated according to standard techniques (see, e.g., Harris & Martin, 1984, Am J Physiol 247:R380-386). […] Two weeks after parabiosis a pump delivering leptin ICV in one animal of each pair was implanted. For GTG lesioning, 4-week-old C57BL/6J mice were given a single ip injection of either PBS or GTG (0.5 mg/g). For MSG lesioning, 2 day-old C57BL/6J pups were injected daily subcutaneously with either PBS or MSG (2 mg/g) for 10 days.
Next, 4-week-old wt mice were treated with gold thioglucose (GTG), a compound that destroys neurons of the VMH and of the more dorso-lateral part of the ARC although it affects other neurons (see, e.g., Debons et al., 1962, Am J Physiol 4:743-750). […] As with ob/ob mice, this HBM was due to an increase in bone formation defined by an increase in the bone formation rate (FIG. 9E). […] These findings established that neurons sensitive to GTG are involved in the control of bone mass.

[5] = tested on: C57BL/6J pups; assay: MSG lesioning of the hypothalamus in mice; format: in vivo, mouse
Protocol: (§1) Wildtype (C57BL/6J) and mutant (C57BL/6J A^y/a, C57BL/6J ob/ob) mice were obtained from the Jackson laboratory and adrenal medullectomized mice from Harlan Tecklad laboratory. Dbh−/− mice were rescued as previously described (Thomas et al., 1998, Neurochem 70:2468-2476). Isoproterenol (Sigma) was injected intraperitoneally (ip) once daily for 6 weeks at 30 mg/kg (wt) or 3 mg/kg (ob/ob). Propranolol (Sigma) was added to the drinking water at a concentration of 0.5 g/l. For ICV infusion, a 28-gauge cannula (Brain infusion kit II, Alza) was implanted into the third ventricle as previously described infusing human leptin (Sigma) at 8 ng/hr or MT-II at 125 ng/hr (Phoenix Pharmaceuticals) for 28 days (see, e.g., Ducy et al., 2000, Cell 100: 197-207). The cannula was connected to an osmotic pump (Alza) placed in the dorsal subcutaneous space of the animal. For parabiosis longitudinal incisions were made in the skin and in the peritoneal cavity along one side on each mouse. Edges of the incisions were connected by suture to induce coelioanastomosis. Cross-circulation was quantified by injecting 1 ml/kg 0.25% Evans blue into the tail vein of one mouse of the parabiosed pair. After 30 min. blood was collected from both mice by retroorbital bleeding and the blood exchange rate was calculated according to standard techniques (see, e.g., Harris & Martin, 1984, Am J Physiol 247:R380-386). […]

[6] = tested on: murine primary osteoblasts; assay: cAMP production in murine primary osteoblasts; format: cell-based, mouse; conditions: confluent cultures, 100 μM IBMX, 5 min treatment; PTH as positive control
Protocol: (§2) Primary osteoblast cultures were established as previously described (see, e.g., Ducy et al., 2000, Cell 100: 197-207) and maintained in αMEM/0.1 mg/ml ascorbic acid supplemented with 10% FBS. SaOS-2 were grown in MEM/10% FBS. For cAMP assay confluent cultures were incubated with serum free medium containing 100 μM IBMX (3-isobutyl-1-methylxanthine, Sigma) for 8 minutes before PBS, PTH(1-34) (Bachem), isoproterenol, norepinephrine, phenylephrine (Sigma) or propranolol were added for 5 min. Intracellular cAMP concentration was measured by immunoassay (R&D Systems). For gene expression analyses, primary osteoblasts were treated for 72 hours with appropriate drugs in 0.1% FBS. Hormone serum levels were quantified using immunoassays kits from Peninsula Laboratories (Insulin) or Alpco Diagnostics (leptin). Deoxypyridinoline cross-links and Creatinine were measured in morning urines using the Quidel kits. a1(I) leptin bioactivity was verified by cotransfection of 293 cells expressing ObRb with a STAT3-responsive-luc reporter construct, pSVβgal plasmid and a1(I) leptin expression vector or mock. Twenty-four hours later luciferase and β-galactosidase activities were measured. Data represents ratios of luciferase/β-galactosidase activities, and values are mean of 6 independent transfection experiments.
For a sympathetic regulation of bone formation to exist several requirements have to be fulfilled. The first one is that functional adrenergic receptors are present on osteoblasts. […] Immunohistochemical analysis of long bones from transgenic mice expressing LacZ under the control of the osteoblast-specific fragment of the a1(I) collagen promoter verified the presence of β2-adrenergic receptors on osteoblasts (FIG. 13B). No other adrenergic receptor subtype could be detected. […] Electron micrographs confirmed the presence of unmyelinated peripheral nerve axons coursing through the marrow adjacent to bone trabeculae and to osteoblasts (FIG. 13E). β-adrenergic receptors are G-coupled receptors that signal through the cAMP pathway (see, e.g., Benovic et al., 1988, Annu Rev Cell Biol 4:405-428). Thus, to assess the biologic relevance of the presence of β2-adrenergic receptors on osteoblasts, these cells were treated with isoproterenol, a β-adrenergic agonist, alone or in the presence of propranolol, a β-adrenergic receptor antagonist; with norepinephrine, the natural ligand of β-adrenergic receptors; with phenylephrine, an α-adrenergic agonist or with vehicle and measured cAMP production. As a positive control, parathyroid hormone (PTH) that binds to another G-coupled receptor present in osteoblasts was used (Gardella & Juppner, 2001, Trends Endocrinol Metab 12:210-217.). […] These effects were abolished by propranolol treatment. […]

[7] = tested on: human SaOS-2 osteoblastic cells; assay: cAMP production in human SaOS-2 osteoblastic cells; format: cell-based; conditions: SaOS-2, 100 μM IBMX, 5 min treatment
Protocol: as §2
For a sympathetic regulation of bone formation to exist several requirements have to be fulfilled. The first one is that functional adrenergic receptors are present on osteoblasts. […] No other adrenergic receptor subtype could be detected. […] Thus, to assess the biologic relevance of the presence of β2-adrenergic receptors on osteoblasts, these cells were treated with isoproterenol, a β-adrenergic agonist, alone or in the presence of propranolol, a β-adrenergic receptor antagonist; with norepinephrine, the natural ligand of β-adrenergic receptors; with phenylephrine, an α-adrenergic agonist or with vehicle and measured cAMP production. […]

[8] = tested on: ovariectomized rat; conditions: cited from earlier work
[9] = tested on: ob/ob mice; assay: ICV infusion of MTII in ob/ob mice; format: in vivo, mouse; conditions: ICV 125 ng/hr, 28 days
Protocol: as §1

[10] = tested on: primary osteoblasts isolated from wild-type mice; assay: Leptin signaling in primary osteoblast cultures (Stat3 phosphorylation, immediate early genes, matrix synthesis and mineralization); format: cell-based, mouse
Protocol: Expression of leptin in osteoblasts was studied in subconfluent primary osteoblast cultures from wild-type mice which were maintained for 4 days in 10% FBS mineralization medium and then subsequently switched to 0.5% for 2 days and replaced daily. Medium was replaced 2 hours before a 20 min treatment with 80 ng/mL leptin (Sigma) or 40 ng/mL Oncostatin M (R&D Diagnostics) or vehicle. RNA extractions were performed using Triazol (Gibco). Northern blots were performed with 15 μg of total RNA according to methods well known in the art.
To determine whether or not leptin could transduce its signal in osteoblasts, serum-starved primary osteoblasts isolated from wild-type mice were treated with leptin. Primary osteoblast cultures from calvaria of newborn wild-type or db/db mice were established as previously described (Ducy et al., 1999, Genes Dev 13, 1025-1036) and maintained in mineralization medium (αMEMI 0.1 mg/mL ascorbic acid; 5 mM […]) supplemented with 10% […]. Cultures of mutant cells were maintained in this medium for 15 days before analysis. Cultures derived from wild-type mice were maintained for 10 days in this medium then the percentage of serum was reduced to 0.5% and the medium supplemented with 1.2 μg/mL leptin (Sigma) or vehicle for 5 days.
The phosphorylation of Stat3, a downstream effector of leptin signaling in its target cells (Tartaglia et al., 1995, Cell 83, 1263-1271; Baumann et al., 1996, Proc Natl Acad Sci USA 93, 8374-8378; Ghilardi et al., 1996, Proc Natl Acad Sci USA 93, 6231-6235; Vaisse et al., 1996, Nat Genet 14, 95-97), was monitored, in addition to the expression of two immediate early genes whose transcription is increased following leptin treatment of target cells (Elmquist et al., 1997, Endocrinology 138, 839-842). As a positive control oncostatin-M that induces Stat3 phosphorylation and activates the expression of the same two immediate early genes in osteoblasts (Levy et al., 1996, Endocrinology 137, 1159-1165) was utilized. Western blot analysis was performed to determine Stat3 phosphorylation as follows. Cells were lysed, protein extracts were separated on a 7.5% SDS-PAGE and blotted on nitrocellulose (Biorad) for immunoblotting assay by methods well known in the art. Analysis of Stat3 phosphorylation was performed using the PhosphoPlus Stat3 (Tyr7O5) Antibody kit (New England Biolabs) according to the manufacturer's instructions.
Finally, the effect of a long-term leptin treatment of primary osteoblast cultures from wild-type mice on extracellular matrix synthesis and bone matrix mineralization was determined. The presence of a collagen-rich extracellular matrix and of mineralization nodules was assessed by whole-mount staining of the cultures by the van Gieson and von Kossa reagent, respectively. No difference was observed when assessing collagen synthesis or mineralization nodule formation between control and leptin-treated cultures (FIG. 5E).

[11] = estradiol-treated ob/ob mice, end of treatment period
[12] = female ob/ob mice, 3-month treatment

## C[C@]12CC[C@@H]3c4ccc(O)cc4CC[C@H]3[C@@H]1CC[C@@H]2O [17 β-estradiol]
[1]
  bone trabeculae (histological analysis of vertebrae): significant increase
[2]; 2-month-old female ob/ob mice, subcutaneous pellets, serum 250 pg/mL, 3-month treatment
  hypogonadism, as judged by the aspect of uteri and levels of estradiol in blood: corrected their hypogonadism
[2]; [11]
  increase in bone volume compared to estradiol-treated wild-type mice: 50%
  increase in bone volume compared to untreated wild-type mice: 3 fold
[2]; [12]
  high bone mass phenotype compared to placebo treated ob/ob mice: further increase
  osteoclast number: normalization

## COC(=O)COc1ccc(CC(C)NCC(O)c2cccc(Cl)c2)cc1 (stereo not drawn) [BRL 35135]
[3]
  sizes of bone marrow adipocytes: reduce

## OC[C@@H](O)[C@@H](O)[C@H](O)[C@@H](O)C=S.[Au] [GTG, gold thioglucose]
[4]; 4-week-old wt mice, single ip injection 0.5 mg/g
  VMH neurons expressing SF1 (immunohistochemistry): marked perturbation
[4]; 12 week-old GTG-treated mice
  bone formation rate: increase
  bone mass (bone histologic analysis): HBM whose severity was nearly identical to that of ob/ob mice
[4]; GTG-treated mice
  urinary elimination of deoxypyridinoline (dpd) and osteoclast numbers: normal

## N[C@@H](CCC(=O)O)C(=O)[O-].[Na+] [MSG, monosodium glutamate]
[5]; newborn pups, 2 mg/g subcutaneously daily for 10 days
  ARC structures (neurons synthesizing NPY): markedly affected
[5]; twelve week-old MSG-treated mice
  bone mass (bone volume, histology): normal

## NC[C@H](O)c1ccc(O)c(O)c1 [norepinephrine]
[6]
  cAMP production: increased
[7]
  cAMP production: induced

## CNC[C@H](O)c1cccc(O)c1 [phenylephrine]
[6]
  cAMP production: not

## CC(C)(C)NCC(O)c1ccc(O)c(CO)c1 (stereo not drawn) [salbutamol]
[8]
  effects in bone: Anabolic effects

## MTII
[9]
  body weight: significantly decreased
  bone mass: did not affect

B1: Oncostatin-M: positive control that induces Stat3 phosphorylation in osteoblasts (protein, UniProt P13725 26-221, looked up)
Oncostatin-M: AAIGSCSKEYRVLLGQLQKQTDLMQDTSRLLDPYIRIQGLDVPKLREHCRERPGAFPSEETLRGLGRRGFLQTLNATLGCVLHRLADLEQRLPKAQDLERSGLNIEDLEKLQMARPNILGLRNNIYCMAQLLDNSDTAEPTKAGRGASQPPTPTPASDAFQRKLEGCRFLHGYHRFMHSVGRVFSKWGESPNRSRR
[10]; primary osteoblasts, 20 min treatment
  expression of Tis11 and c-fos (Northern analysis): quickly and transiently activated
[10]; serum-starved primary osteoblasts, 20 min, leptin 80 ng/mL, Oncostatin M 40 ng/mL
  Stat3 phosphorylation (Western blot): did induce
